# Test results published in article PMC8333309, “Mechanism of LolCDE as a molecular extruder of bacterial triacylated lipoproteins” (Nature Communications, 2021).
# Target: T1, LolCDE (Escherichia coli, UniProt P75957)
# T1 construct: gene lolD; co-expressed in E. coli BL21(DE3); purified in DDM, reconstituted into MSP1D1/POPG nanodiscs; co-purifies with lipoprotein; with Lipoprotein-releasing system transmembrane protein LolC; Lipoprotein-releasing system transmembrane protein LolE
# T1 sequence (P75957 1-233): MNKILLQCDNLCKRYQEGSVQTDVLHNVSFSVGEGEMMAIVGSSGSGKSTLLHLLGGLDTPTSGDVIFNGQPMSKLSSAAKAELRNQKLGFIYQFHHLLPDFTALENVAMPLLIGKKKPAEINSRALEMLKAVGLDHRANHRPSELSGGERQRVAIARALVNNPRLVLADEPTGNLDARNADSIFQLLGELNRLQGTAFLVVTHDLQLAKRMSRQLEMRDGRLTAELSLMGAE
# T1 sequence (P0ADC3 1-399 partner): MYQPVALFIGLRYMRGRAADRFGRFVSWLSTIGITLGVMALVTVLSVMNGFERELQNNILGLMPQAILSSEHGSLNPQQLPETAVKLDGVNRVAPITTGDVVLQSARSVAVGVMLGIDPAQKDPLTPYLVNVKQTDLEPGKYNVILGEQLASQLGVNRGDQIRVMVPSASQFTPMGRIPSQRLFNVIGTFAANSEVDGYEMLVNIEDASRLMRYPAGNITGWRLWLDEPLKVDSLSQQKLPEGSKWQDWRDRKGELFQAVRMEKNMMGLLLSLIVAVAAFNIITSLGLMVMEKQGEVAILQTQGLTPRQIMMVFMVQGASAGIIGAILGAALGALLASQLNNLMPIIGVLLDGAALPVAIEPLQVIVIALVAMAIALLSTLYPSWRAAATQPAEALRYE
# T1 sequence (P75958 2-414 partner): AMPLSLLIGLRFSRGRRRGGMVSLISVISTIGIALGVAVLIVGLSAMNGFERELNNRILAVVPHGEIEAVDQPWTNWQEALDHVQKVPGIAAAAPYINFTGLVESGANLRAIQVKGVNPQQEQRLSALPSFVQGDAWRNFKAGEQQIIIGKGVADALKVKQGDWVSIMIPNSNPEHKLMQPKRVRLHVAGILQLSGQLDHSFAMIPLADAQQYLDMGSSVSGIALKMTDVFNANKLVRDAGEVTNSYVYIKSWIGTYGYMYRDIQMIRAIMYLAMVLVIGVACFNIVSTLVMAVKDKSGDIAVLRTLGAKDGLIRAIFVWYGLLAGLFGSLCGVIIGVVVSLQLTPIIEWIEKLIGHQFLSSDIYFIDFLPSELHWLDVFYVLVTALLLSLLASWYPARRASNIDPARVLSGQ
# Assay: colorimetric phosphate-release ATPase assay
# Type: biochemical
# Conditions: LolCDE in nanodiscs; 4 mM ATP, 4 mM MgCl2, pH 8, 37 °C; traps ADP-vanadate in the ATP site
compound,measurement,value
[O]=[V]([OH])([OH])[OH] [orthovanadate],% inhibition at 0.1 mM,~ 90%
